PubChem BioAssay AID1963833 (Molecular Pharmacology Branch, DTP, NCI, 2024)

Test system: 883617-216-R-J1-PDC complex spheroid viability
Experiment: Anticancer human tumor 883617-216-R-J1-PDC patient-derived bladder carcinoma cell line growth inhibition [POLQ]
Details: for IC50: curve of first compound; for viability, T/C: stronger effect = lower value
Method in brief: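 Patient-derived tumour cells were co-cultured with HUVEC and mesenchymal stem cells as multicellular spheroids at 37 °C. They were treated with POLQ inhibitors (novobiocin, ART-558, RP6685) alone or combined with other agents. Top concentrations were at or near clinical Cmax (otherwise 10 microM; SN-38 at 1 microM), decreasing in half-log steps.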

[1] = second compound 0.0316 µM, first compound 0.0316 µM
[2] = second compound 0.0316 µM, first compound 0.1 µM
[3] = second compound 0.0316 µM, first compound 0.316 µM
[4] = second compound 0.0316 µM, first compound 1 µM
[5] = second compound 0.1 µM, first compound 0.0316 µM
[6] = second compound 0.1 µM, first compound 0.1 µM
[7] = second compound 0.1 µM, first compound 0.316 µM
[8] = second compound 0.1 µM, first compound 1 µM
[9] = second compound 0.316 µM, first compound 0.0316 µM
[10] = second compound 0.316 µM, first compound 0.1 µM
[11] = second compound 0.316 µM, first compound 0.316 µM
[12] = second compound 0.316 µM, first compound 1 µM
[13] = second compound 1 µM, first compound 0.0316 µM
[14] = second compound 1 µM, first compound 0.1 µM
[15] = second compound 1 µM, first compound 0.316 µM
[16] = second compound 1 µM, first compound 1 µM
[17] = second compound 3.16 µM, first compound 0.0316 µM
[18] = second compound 3.16 µM, first compound 0.1 µM
[19] = second compound 3.16 µM, first compound 0.316 µM
[20] = second compound 3.16 µM, first compound 1 µM
[21] = second compound 10 µM, first compound 0.0316 µM
[22] = second compound 10 µM, first compound 0.1 µM
[23] = second compound 10 µM, first compound 0.316 µM
[24] = second compound 10 µM, first compound 1 µM
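Note: spheroids exposed to compounds for seven days before readout.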
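Throughout, for viability, T/C: 100% = DMSO vehicle control viability.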

Compound: COc1cccc(OCCCN)c1-c1cc(Nc2cnc(C#N)cn2)n[nH]1 + Nc1ccc(C#CCN(C(=O)Cc2ncc(C(F)(F)F)cc2C(F)(F)F)c2ccc(F)cc2)nn1
- IC50 (second compound 0.0316 µM): 0.0774 µM
- IC50 (second compound 0.1 µM): 0.0472 µM
- IC50 (second compound 0.316 µM): 0.0871 µM
- IC50 (second compound 1 µM): 0.12 µM
- IC50 (second compound 3.16 µM): 0.0733 µM
- IC50 (second compound 10 µM): 0.0856 µM
- viability, T/C (second compound 0.0316 µM, first compound 0.00316 µM): 111%
- viability, T/C (second compound 0.0316 µM, first compound 0.01 µM): 77%
- viability, T/C [1]: 67%
- viability, T/C [2]: 42.8%
- viability, T/C [3]: 37.7%
- viability, T/C [4]: 35.4%
- viability, T/C (second compound 0.1 µM, first compound 0.00316 µM): 96.9%
- viability, T/C (second compound 0.1 µM, first compound 0.01 µM): 95.6%
- viability, T/C [5]: 55.2%
- viability, T/C [6]: 43.6%
- viability, T/C [7]: 41.4%
- viability, T/C [8]: 33.7%
- viability, T/C (second compound 0.316 µM, first compound 0.00316 µM): 99.3%
- viability, T/C (second compound 0.316 µM, first compound 0.01 µM): 91.3%
- viability, T/C [9]: 57.4%
- viability, T/C [10]: 52.6%
- viability, T/C [11]: 40.8%
- viability, T/C [12]: 31.9%
- viability, T/C (second compound 1 µM, first compound 0.00316 µM): 95.3%
- viability, T/C (second compound 1 µM, first compound 0.01 µM): 78.2%
- viability, T/C [13]: 64.8%
- viability, T/C [14]: 53%
- viability, T/C [15]: 40%
- viability, T/C [16]: 28.6%
- viability, T/C (second compound 3.16 µM, first compound 0.00316 µM): 85.9%
- viability, T/C (second compound 3.16 µM, first compound 0.01 µM): 89.8%
- viability, T/C [17]: 67.1%
- viability, T/C [18]: 39.5%
- viability, T/C [19]: 47.1%
- viability, T/C [20]: 44.5%
- viability, T/C (second compound 10 µM, first compound 0.00316 µM): 109%
- viability, T/C (second compound 10 µM, first compound 0.01 µM): 89.8%
- viability, T/C [21]: 63.6%
- viability, T/C [22]: 48.8%
- viability, T/C [23]: 39.5%
- viability, T/C [24]: 36.2%

Compound: O=C(c1cc(Cc2n[nH]c(=O)c3ccccc23)ccc1F)N1CCN(C(=O)C2CC2)CC1 + Nc1ccc(C#CCN(C(=O)Cc2ncc(C(F)(F)F)cc2C(F)(F)F)c2ccc(F)cc2)nn1
- IC50 (second compound 0.0316 µM): > 10 µM
- IC50 (second compound 0.1 µM): > 10 µM
- IC50 (second compound 0.316 µM): > 10 µM
- IC50 (second compound 1 µM): > 10 µM
- IC50 (second compound 3.16 µM): > 10 µM
- IC50 (second compound 10 µM): > 10 µM
- viability, T/C [1]: 90%
- viability, T/C [2]: 105%
- viability, T/C [3]: 83.3%
- viability, T/C [4]: 89.8%
- viability, T/C (second compound 0.0316 µM, first compound 3.16 µM): 90.3%
- viability, T/C (second compound 0.0316 µM, first compound 10 µM): 67.8%
- viability, T/C [5]: 92.8%
- viability, T/C [6]: 109%
- viability, T/C [7]: 92.7%
- viability, T/C [8]: 97.5%
- viability, T/C (second compound 0.1 µM, first compound 3.16 µM): 95.4%
- viability, T/C (second compound 0.1 µM, first compound 10 µM): 86.4%
- viability, T/C [9]: 97.9%
- viability, T/C [10]: 109%
- viability, T/C [11]: 100%
- viability, T/C [12]: 89.1%
- viability, T/C (second compound 0.316 µM, first compound 3.16 µM): 75.7%
- viability, T/C (second compound 0.316 µM, first compound 10 µM): 87.9%
- viability, T/C [13]: 100%
- viability, T/C [14]: 86.8%
- viability, T/C [15]: 99.3%
- viability, T/C [16]: 104%
- viability, T/C (second compound 1 µM, first compound 3.16 µM): 84.8%
- viability, T/C (second compound 1 µM, first compound 10 µM): 95.3%
- viability, T/C [17]: 90%
- viability, T/C [18]: 99.5%
- viability, T/C [19]: 92.2%
- viability, T/C [20]: 91.3%
- viability, T/C (second compound 3.16 µM, first compound 3.16 µM): 81.2%
- viability, T/C (second compound 3.16 µM, first compound 10 µM): 73%
- viability, T/C [21]: 97%
- viability, T/C [22]: 103%
- viability, T/C [23]: 100%
- viability, T/C [24]: 93.1%
- viability, T/C (second compound 10 µM, first compound 3.16 µM): 94.2%
- viability, T/C (second compound 10 µM, first compound 10 µM): 73%
